Target: T1, human PAD4 (Homo sapiens, UniProt Q9UM07)
T1 construct: human PAD4 (NM_012387), A2-P663, was PCR amplified; His-SUMO (N, cleaved yes); made in house; host or cells: E. coli BL21(DE3)
Test: In vitro PAD4 BAEE biochemical assay
Settings: BAEE substrate 3 mM, 5 nM PAD4, 2 mM calcium chloride; geometric mean of multiple experiments
Description: In Vitro PAD4 BAEE Biochemical Assay
The enzymatic activity of human PAD4 was monitored in a biochemical assay in the presence or absence of compounds using the small peptidyl arginine mimic BAEE (Na-Benzoyl-L-arginine ethyl ester hydrochloride) as substrate. PAD4 activity led to deimination of BAEE and release of ammonia. Levels of ammonia were monitored by using an amine coupling reaction and were indicative of PAD4 enzymatic activity.
One hundred nanoliters of test compounds dissolved in DMSO at various concentrations were dispensed into a 384-well black OptiPlate using a Labcyte Echo instrument. Ten microliters of a solution of recombinant PAD4 and calcium chloride diluted in PAD4 assay buffer (50 mM MOPS [3-(N-morpholino) propanesulfonic acid], pH 7.6; 50 mM sodium chloride; 0.05% Tween-20; 2 mM dithiothreitol) was added to the compound-containing plate and was incubated for 30 minutes at 25° C. Ten microliters of a solution of BAEE (Sigma-Aldrich #B4500) diluted in PAD4 assay buffer was then added to start the reaction. Final concentrations were 5 nM PAD4, 2 mM calcium chloride, and 3 mM BAEE. The reaction mixture was incubated at 25° C. for 2 hours and was stopped with the addition of 10 microliters of a solution of 75 mM EDTA (Ethylenediaminetetraacetic acid) in PAD4 assay buffer. Thirty microliters of detection solution (5 mM o-phthalaldehyde, 50 mM MOPS [3-(N-morpholino) propanesulfonic acid], pH 7.6; 50 mM sodium chloride; 0.05% Tween-20; 5 mM dithiothreitol) was then added and the reaction was incubated for 1 hour at 25° C. The level of fluorescent thiol-substituted isoindole resulting from the reaction of ammonia, o-phthalaldehyde, and dithiothreitol was measured on an Envision plate reader (PerkinElmer) with 405 nm excitation and 535 nm emission.
Data were normalized based on maximum inhibition (50 micromolar of the covalent PAD inhibitor BB-Cl-Amidine (Bicker, K. L.; Anguish, L.; Chumanevich, A. A.; Cameron, M. D.; Cui, X.; Witalison, E.; Subramanian, V.; Zhang, X.; Chumanevich, A. P.; Hofseth, L. J.; Coonrod, S. A.; Thompson, P. R. ACS Med. Chem. Lett. 2012, 3, 1081-1085). and no inhibition (DMSO) controls. Least squares curve fittings were performed using a four-parameter variable slope nonlinear regression model. IC50 is defined as the concentration of compound required to inhibit 50% of maximum activity. IC50 values from multiple experiments were averaged by geometric mean and the standard deviation was calculated.

T1 sequence (Q9UM07 2-663): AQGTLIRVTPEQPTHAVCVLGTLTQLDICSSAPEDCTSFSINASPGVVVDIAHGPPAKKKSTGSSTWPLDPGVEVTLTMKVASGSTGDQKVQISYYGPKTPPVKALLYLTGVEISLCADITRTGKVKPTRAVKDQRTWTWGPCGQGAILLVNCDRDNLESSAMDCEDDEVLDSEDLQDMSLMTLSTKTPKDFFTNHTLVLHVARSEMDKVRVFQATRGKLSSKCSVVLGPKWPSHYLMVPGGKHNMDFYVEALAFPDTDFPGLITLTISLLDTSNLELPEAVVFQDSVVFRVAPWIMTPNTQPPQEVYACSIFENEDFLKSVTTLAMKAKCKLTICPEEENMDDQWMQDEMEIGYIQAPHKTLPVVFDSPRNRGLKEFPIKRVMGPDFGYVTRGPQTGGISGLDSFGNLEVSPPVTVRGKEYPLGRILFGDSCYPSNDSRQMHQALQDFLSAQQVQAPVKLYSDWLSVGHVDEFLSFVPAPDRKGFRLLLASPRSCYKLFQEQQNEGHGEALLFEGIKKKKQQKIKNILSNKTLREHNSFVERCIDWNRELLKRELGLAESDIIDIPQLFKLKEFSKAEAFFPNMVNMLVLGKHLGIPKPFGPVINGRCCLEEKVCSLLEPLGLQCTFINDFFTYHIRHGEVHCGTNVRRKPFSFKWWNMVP

Row | IC50 | SMILES
1 | 15 nM | COc1cc(C(=O)N2C[C@H](N)[C@H](O)[C@@H](F)C2)cc2nc(-c3cc4ccc5nc4n3CC(F)(F)CCC[C@@H]3C[C@H]3C(=O)N[C@@H]5C)n(C)c12 [Example 678, (2~{R},5~{R},7~{R})-14-[5-[(3~{S},4~{S},5~ {S})-3-amino-5-fluoro-4-hydroxy-piperidine-1-carbonyl]-7-methoxy-1-methyl-benzimidazol-2-yl]-11,11-difluoro-2-methyl-3,13,19-triazatetracyclo[11.5.2.0^ {5,7}.0^{16,20}]icosa-1(19), 14,16(20),17-tetraen-4-one]
2 | 19 nM | COc1cc(C(=O)N2CCC[C@@H](N)[C@H]2C)cc2nc(-c3cc4ccc5nc4n3CCCCC[C@]3(F)C[C@H]3C(=O)N[C@@H]5C)n(C)c12 [Example 706, (2~{R},5~{S},7~{S})-14-[5-[(2~{R},3~{R})-3-amino-2-methyl-piperidine-1-carbonyl]-7-methoxy-1-methyl-benzimidazol-2-yl]-7-fluoro-2-methyl-3,13,19-triazatetracyclo[11.5.2.0^ {5,7}.0^{16,20}]icosa-1(19),14,16(20),17-tetraen-4-one]
3 | 61 nM | C[C@H]1NC(=O)[C@@]2(C)C[C@@H]2C/C=C/C(F)(F)Cn2c(-c3nc4cc(C(=O)N[C@H]5CNCC[C@@H]5F)c(F)cc4n3C)cc3ccc1nc32 [Example 552, 2-[(2~{R},5~{S},7~{S}, 9~{E})-11,11-difluoro-2,5-dimethyl-4-oxo-3,13,19-triazatetracyclo[11.5.2.0^ {5,7}.0^{16,20}]icosa-1(19),9,14,16(20), 17-pentaen-14-yl]-6-fluoro-~{N}-[(3~{S},4~ {S})-4-fluoro-3-piperidyl]-1-methyl-benzimidazole-5-carboxamide]
4 | 121 nM | COc1cc(C(=O)N[C@H]2CNCC[C@@H]2F)cc2nc(-c3cc4ccc5nc4n3CCCCCc3nnn(C)c3C(=O)N[C@@H]5C)n(C)c12 [Example 183, 2-[(2~{R})-2,6-dimethyl-4-oxo-3,6,7,8,15,21-hexazatetracyclo[13.5.2.0^{5,9}.0^{18,22}]docosa-1(21),5(9),7,16,18(22),19-hexaen-16-yl]-~{N}-[(3~{S},4~{S})-4-fluoro-3-piperidyl]-7-methoxy-1-methyl-benzimidazole-5-carboxamide]
5 | 26 nM | COc1cc(C(=O)N2C[C@H](N)[C@@H]3CC[C@H]2C3)cc2nc(-c3cc4ccc5nc4n3CCCCCc3nc(Cl)ccc3C(=O)N[C@@H]5C)c(C)n12 [Example 811, (2~{R})-17-[7-[(1~{S),4~ {R},5~{R})-4-amino-2-azabicyclo[3.2.1]octane-2-carbonyl]-5-methoxy-3-methyl-imidazo[1,2-a]pyridin-2-yl]-8-chloro-2-methyl-3,9,16,22-tetrazatetracyclo[14.5.2.0^ {5,10).0^{19,23}]tricosa-1(21),5(10),6,8,17,19,22-heptaen-4-one]
6 | 82 nM | COC[C@H]1CCN(C(=O)c2cc(OC)c3c(c2)nc(-c2cc4ccc5nc4n2CCCCCCC(C)(C)C(=O)N[C@@H]5C)n3C)C[C@@H]1N [Example 677, (11~{R})-17-[5-[(3~ {R},4~{S})-3-amino-4-(methoxymethyl)piperidine-1-carbonyl]-7-methoxy-1-methyl-benzimidazol-2-yl]-8,8,11-trimethyl-1,10,19-triazatricyclo [10.5.2.0^{15,18}] nonadeca-12(19),13,15 (18),16-tetraen-9-one]
7 | 165 nM | COc1cc(C(=O)N2[C@H]3CC[C@@H]2[C@H](N)C3)cc2nc(-c3cc4ccc5cc4n3CCCCCCC(=O)Nc3ccccc3-5)n(C)c12 [Example 94, 17-[5-[(1~{R},2~{R},4~{S})-2-amino-7-azabicyclo[2.2.1]heptane-7-carbonyl]-7-methoxy-1-methyl-benzimidazol-2-yl]-8,16-diazatetracyclo[14.5.2.0^{2,7}.0^{19,23}] tricosa-1(22),2,4,6,17,19(23),20-heptaen-9-one]
8 | 201 nM | COc1cc(C(=O)N2CCC[C@@H](N)C2)cc2nc(-c3cc4ccc5nc4n3CCCCCC(C)(C)C(=O)N[C@@H]5C)c(C)n12 [Example 106, (10~{R})-16-[7-[(3~{R})-3-aminopiperidine-1-carbonyl]-5-methoxy-3-methyl-imidazo[1,2-a]pyridin-2-yl]-7,7,10-trimethyl-1,9,18-triazatricyclo[9.5.2.0^{14,17}]octadeca-11(18),12,14(17),15-tetraen-8-one]
9 | 51 nM | COc1cc(C(=O)N[C@H]2CNC[C@H](O)C2)cc2nc(-c3cc4ccc5nc4n3CCCCCCC(C)(C)C(=O)N[C@@H]5C)n(C)c12 [Example 530, ~{N}-[(3~{R},5~ {R})-5-hydroxy-3-piperidyl]-7-methoxy-1-methyl-2-[(11~{R})-8,8,11-trimethyl-9-oxo-1,10,19-triazatricyclo [10.5.2.0^{15,18}]nonadeca-12(19),13,15(18),16-tetraen-17-yl]benzimidazole-5-carboxamide]
10 | 1380 nM | COc1cc(C(=O)N2CCC[C@@H](N)C2)cc2nc(-c3cc4ccc5cc4n3CCCCCCC(C)(C)C(=O)Nc3ccccc3-5)n(C)c12 [Example 54, 18-[5-[(3~{R})-3-aminopiperidine-1-carbonyl]-7-methoxy-1-methyl-benzimidazol-2-yl]-10,10-dimethyl-8,17-diazatetracyclo[15.5.2.0^{2,7).0^{20,24}] tetracosa-1(23),2,4,6,18,20(24),21-heptaen-9-one]
11 | 123 nM | COc1cc(C(=O)N2CCC[C@@H](N)C2)cc2nc(-c3cc4ccc5nc4n3CCCC[C@H]3C[C@@H]3C(=O)N[C@@H]5C)n(C)c12 [Example 151, (2~{R},5~{S},7~{S})-13-[5-[(3~{R})-3-aminopiperidine-1-carbonyl]-7-methoxy-1-methyl-benzimidazol-2-yl]-2-methyl-3,12,18-triazatetracyclo[10.5.2.0^{5,7}.0^{15,19}] nonadeca-1(18),13,15(19),16-tetraen-4-one]
12 | 151 nM | COc1cc(C(=O)N2C[C@H](N)[C@@H]3CC[C@H]2C3)cc2nc(-c3cc4ccc5nc4n3CCCCCCCCN(C(C)=O)[C@@H]5C)n(C)c12 [Example 908]
13 | 45 nM | COc1cc(C(=O)N2[C@H]3CC[C@@H]2[C@H](N)C3)cc2nc(-c3cc4ccc5nc4n3CCCCCC(C)(C)C(=O)N[C@@H]5C)n(C)c12 [Example 102, (10~{R})-16-[5-[(1~{R},2~{R},4~{S})-2-amino-7-azabicyclo[2.2.1]heptane-7-carbonyl]-7-methoxy-1-methyl-benzimidazol-2-yl]-7,7,10-trimethyl-1,9,18-triazatricyclo[9.5.2.0^{14,17}]octadeca-11(18),12,14(17),15-tetraen-8-one]
14 | 338 nM | COc1cc(C(=O)N2CC[C@@H](OC)[C@@H](N)C2)cc2nc(-c3cc4ccc5nc4n3CCCCCCC(C)(C)C(=O)NC5C3CC3)n(C)c12 (some centres unmarked) [Example 778, 17-[5-[(3~{S),4~{R})-3-amino-4-methoxy-piperidine-1-carbonyl]-7-methoxy-1-methyl-benzimidazol-2-yl]-11-cyclopropyl-8,8-dimethyl-1,10,19-triazatricyclo [10.5.2.0^{15,18}]nonadeca-12,14,16,18-tetraen-9-one]
